Source: US7300946B2, “N-(substituted arylmethyl)-4-(disubstituted methyl) piperidines and pyridines” (Bayer CropScience AG, priority 2002, dated 2007)

Test system: tobacco budworm (Heliothis virescens [Fabricius])
Assay: surface-treated diet test against the tobacco budworm
Assay type: in vivo
Details: tobacco budworm second instar larvae, surface-treated diet, 0.25 millimoles of candidate insecticide on the surface of the diet, five-day exposure; for Percent Mortality: compared to total number of insects infested; for Percent Growth Inhibition: inhibition of insect weight relative to untreated controls
Summary of the method: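 Wheat germ artificial diet surface-treated with 40 µL of 50 mM DMSO stock diluted 1:7 in 1:1 water/acetone (0.25 millimolar on diet), or sub-multiples for rate tests. One second-instar larva per well, 25° C, 60% RH, 5 days; percent weight inhibition vs DMSO controls and percent mortality.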

SMILES	Percent Mortality [%]	Percent Growth Inhibition [%]
CCn1nnc(-c2ccc(CN3CCC(C(OC(=O)Nc4ccc(C(F)(F)F)cc4)c4ccc(C(F)(F)F)cc4)CC3)cc2)n1 (stereo not drawn) [Compound 289]	100	100
Cn1nnc(-c2ccc(CN3CCC(C(OC(=O)Nc4ccc(C(F)(F)F)cc4)c4ccc(OC(F)(F)F)cc4)CC3)cc2)n1 (stereo not drawn) [Compound 290]	100	100
CCn1nnc(-c2ccc(CN3CCC(C(OC(=O)Nc4ccc(C(F)(F)F)cc4)c4ccc(OC(F)(F)F)cc4)CC3)cc2)n1 (stereo not drawn) [Compound 291]	100	95
CCn1nnc(-c2ccc(CN3CCC(C(OC(=O)Nc4ccc(Cl)c(C(F)(F)F)c4)c4ccc(C(F)(F)F)cc4)CC3)cc2)n1 (stereo not drawn) [Compound 292]	100	100
CCn1nnc(-c2ccc(CN3CCC(C(OC(=O)Nc4cc(C(F)(F)F)cc(C(F)(F)F)c4)c4ccc(C(F)(F)F)cc4)CC3)cc2)n1 (stereo not drawn) [Compound 293]	17	93
Cn1nnc(-c2ccc(CN3CCC(C(OC(=O)Nc4ccc(OC(F)(F)F)cc4)c4ccc(OC(F)(F)F)cc4)CC3)cc2)n1 (stereo not drawn) [Compound 294]	100	100
CCn1nnc(-c2ccc(CN3CCC(C(OC(=O)Nc4ccc(OC(F)(F)F)cc4)c4ccc(OC(F)(F)F)cc4)CC3)cc2)n1 (stereo not drawn) [Compound 295]	100	92
CCn1nnc(-c2ccc(CN3CCC(C(OC(=O)Nc4ccc(-c5ccccc5)cc4)c4ccc(C(F)(F)F)cc4)CC3)cc2)n1 (stereo not drawn) [Compound 297]	100	100
CCn1nnc(-c2ccc(CN3CCC(C(OC(=O)Nc4ccc(Oc5ccccc5)cc4)c4ccc(C(F)(F)F)cc4)CC3)cc2)n1 (stereo not drawn) [Compound 298]	100	100
CCn1nnc(-c2ccc(CN3CCC(C(OC(=S)Nc4ccc(C(F)(F)F)cc4)c4ccc(OC(F)(F)F)cc4)CC3)cc2)n1 (stereo not drawn) [Compound 302]	100	100
CCn1nnc(-c2ccc(CN3CCC(C(OCc4ccc(C(F)(F)F)cc4)c4ccc(OC(F)(F)F)cc4)CC3)cc2)n1 (stereo not drawn) [Compound 304]	100	95
CCn1nnc(-c2ccc(CN3CCC(C(OCc4ccc(OC(F)(F)F)cc4)c4ccc(OC(F)(F)F)cc4)CC3)cc2)n1 (stereo not drawn) [Compound 305]	100	95
Cn1nnc(-c2ccc(COC(c3ccc(OC(F)(F)F)cc3)C3CCN(Cc4ccc(-c5nnn(C)n5)cc4)CC3)cc2)n1 (stereo not drawn) [Compound 306]	33	59
CCn1nnc(-c2ccc(CN3CCC(C(OC(=O)c4ccc(C(F)(F)F)cc4)c4ccc(OC(F)(F)F)cc4)CC3)cc2)n1 (stereo not drawn) [Compound 307]	100	92
CCn1nnc(-c2ccc(CN3CCC(C(OC(=O)c4ccc(OC(F)(F)F)cc4)c4ccc(OC(F)(F)F)cc4)CC3)cc2)n1 (stereo not drawn) [Compound 308]	100	92
Cn1nnc(-c2ccc(CN3CCC(C(NCc4ccccc4Cl)c4ccc(OC(F)(F)F)cc4)CC3)cc2)n1 (stereo not drawn) [Compound 309]	100	100
Cn1nnc(-c2ccc(CN3CCC(C(NCc4cccc(Cl)c4)c4ccc(OC(F)(F)F)cc4)CC3)cc2)n1 (stereo not drawn) [Compound 310]	100	100
Cn1nnc(-c2ccc(CN3CCC(C(NCc4ccc(Cl)cc4)c4ccc(OC(F)(F)F)cc4)CC3)cc2)n1 (stereo not drawn) [Compound 311]	100	100
Cn1nnc(-c2ccc(CN3CCC(C(NCc4ccc(Br)cc4)c4ccc(OC(F)(F)F)cc4)CC3)cc2)n1 (stereo not drawn) [Compound 312]	100	100
Cn1nnc(-c2ccc(CN3CCC(C(NCc4ccccc4F)c4ccc(OC(F)(F)F)cc4)CC3)cc2)n1 (stereo not drawn) [Compound 313]	100	100
Cn1nnc(-c2ccc(CN3CCC(C(NCc4cccc(F)c4)c4ccc(OC(F)(F)F)cc4)CC3)cc2)n1 (stereo not drawn) [Compound 314]	100	100
Cn1nnc(-c2ccc(CN3CCC(C(NCc4ccc(F)cc4)c4ccc(OC(F)(F)F)cc4)CC3)cc2)n1 (stereo not drawn) [Compound 315]	100	100
Cn1nnc(-c2ccc(CN3CCC(C(NCc4ccc(I)cc4)c4ccc(OC(F)(F)F)cc4)CC3)cc2)n1 (stereo not drawn) [Compound 316]	50	100
Cc1ccc(CNC(c2ccc(OC(F)(F)F)cc2)C2CCN(Cc3ccc(-c4nnn(C)n4)cc3)CC2)cc1 (stereo not drawn) [Compound 317]	100	100

SMILES	Percent Mortality [%]	Percent Growth Inhibition [%]
COc1ccc(CNC(c2ccc(OC(F)(F)F)cc2)C2CCN(Cc3ccc(-c4nnn(C)n4)cc3)CC2)cc1 (stereo not drawn) [Compound 318]	100	100
Cn1nnc(-c2ccc(CN3CCC(C(NCc4ccc(OC(F)(F)F)cc4)c4ccc(OC(F)(F)F)cc4)CC3)cc2)n1 (stereo not drawn) [Compound 319]	100	100
Cn1nnc(-c2ccc(CN3CCC(C(NCc4ccc([N+](=O)[O-])cc4)c4ccc(OC(F)(F)F)cc4)CC3)cc2)n1 (stereo not drawn) [Compound 320]	100	100
Cn1nnc(-c2ccc(CN3CCC(C(NC(=O)c4ccccc4)c4ccc(OC(F)(F)F)cc4)CC3)cc2)n1 (stereo not drawn) [Compound 321]	17	95
Cn1nnc(-c2ccc(CN3CCC(C(NC(=O)c4ccccc4Cl)c4ccc(OC(F)(F)F)cc4)CC3)cc2)n1 (stereo not drawn) [Compound 322]	0	78
Cn1nnc(-c2ccc(CN3CCC(C(NC(=O)c4cccc(Cl)c4)c4ccc(OC(F)(F)F)cc4)CC3)cc2)n1 (stereo not drawn) [Compound 323]	67	98
Cn1nnc(-c2ccc(CN3CCC(C(NC(=O)c4ccc(Cl)cc4)c4ccc(OC(F)(F)F)cc4)CC3)cc2)n1 (stereo not drawn) [Compound 324]	83	99
Cn1nnc(-c2ccc(CN3CCC(C(NC(=O)c4ccc(Br)cc4)c4ccc(OC(F)(F)F)cc4)CC3)cc2)n1 (stereo not drawn) [Compound 325]	50	100
Cn1nnc(-c2ccc(CN3CCC(C(NC(=O)c4ccccc4F)c4ccc(OC(F)(F)F)cc4)CC3)cc2)n1 (stereo not drawn) [Compound 326]	0	93
Cn1nnc(-c2ccc(CN3CCC(C(NC(=O)c4cccc(F)c4)c4ccc(OC(F)(F)F)cc4)CC3)cc2)n1 (stereo not drawn) [Compound 327]	0	99
Cn1nnc(-c2ccc(CN3CCC(C(NC(=O)c4ccc(F)cc4)c4ccc(OC(F)(F)F)cc4)CC3)cc2)n1 (stereo not drawn) [Compound 328]	0	95
Cn1nnc(-c2ccc(CN3CCC(C(NC(=O)c4ccc(I)cc4)c4ccc(OC(F)(F)F)cc4)CC3)cc2)n1 (stereo not drawn) [Compound 329]	50	99
Cc1ccc(C(=O)NC(c2ccc(OC(F)(F)F)cc2)C2CCN(Cc3ccc(-c4nnn(C)n4)cc3)CC2)cc1 (stereo not drawn) [Compound 330]	33	89
COc1ccc(C(=O)NC(c2ccc(OC(F)(F)F)cc2)C2CCN(Cc3ccc(-c4nnn(C)n4)cc3)CC2)cc1 (stereo not drawn) [Compound 331]	67	98
Cn1nnc(-c2ccc(CN3CCC(C(NC(=O)c4ccc(OC(F)(F)F)cc4)c4ccc(OC(F)(F)F)cc4)CC3)cc2)n1 (stereo not drawn) [Compound 332]	100	100
Cn1nnc(-c2ccc(CN3CCC(C(NC(=O)c4ccc([N+](=O)[O-])cc4)c4ccc(OC(F)(F)F)cc4)CC3)cc2)n1 (stereo not drawn) [Compound 333]	17	99
Cn1nnc(-c2ccc(CN3CCC(C(NC(=O)Nc4ccccc4Cl)c4ccc(OC(F)(F)F)cc4)CC3)cc2)n1 (stereo not drawn) [Compound 334]	100	100
Cn1nnc(-c2ccc(CN3CCC(C(NC(=O)Nc4cccc(Cl)c4)c4ccc(OC(F)(F)F)cc4)CC3)cc2)n1 (stereo not drawn) [Compound 335]	100	100
Cn1nnc(-c2ccc(CN3CCC(C(NC(=O)Nc4ccc(Cl)cc4)c4ccc(OC(F)(F)F)cc4)CC3)cc2)n1 (stereo not drawn) [Compound 336]	100	100
Cn1nnc(-c2ccc(CN3CCC(C(NC(=O)Nc4ccc(Br)cc4)c4ccc(OC(F)(F)F)cc4)CC3)cc2)n1 (stereo not drawn) [Compound 337]	100	100
Cn1nnc(-c2ccc(CN3CCC(C(NC(=O)Nc4ccccc4F)c4ccc(OC(F)(F)F)cc4)CC3)cc2)n1 (stereo not drawn) [Compound 338]	100	100
Cn1nnc(-c2ccc(CN3CCC(C(NC(=O)Nc4cccc(F)c4)c4ccc(OC(F)(F)F)cc4)CC3)cc2)n1 (stereo not drawn) [Compound 339]	50	100
Cn1nnc(-c2ccc(CN3CCC(C(NC(=O)Nc4ccc(F)cc4)c4ccc(OC(F)(F)F)cc4)CC3)cc2)n1 (stereo not drawn) [Compound 340]	83	100
Cn1nnc(-c2ccc(CN3CCC(C(NC(=O)Nc4ccc(I)cc4)c4ccc(OC(F)(F)F)cc4)CC3)cc2)n1 (stereo not drawn) [Compound 341]	100	100
